In assay [1] the target is T1, epidermal growth factor receptor tyrosine kinase (Homo sapiens, UniProt P00533).
T1 construct: A native 170,000 epidermal growth factor receptor-kinase complex from shed plasma membrane vesicles; endogenous in cells
The assay is described as follows: EGF receptor tyrosine kinase assay (P^32 incorporation in GAT). Format: biochemical. The settings on record: for inhibition at 100 µM: EGRF-R, read-out: % Inhibition at 100 μM (EGFR TK). Here is the method:
At the time of assay, membranes were solubilized in 4% Triton X-100 and glycerol. The reaction is carried out in wells of a 96-well microtiter plate in a total volume of […]. Buffer containing 20 mMHepes (pH 7.4), 15 mMMgCl2, mM MnCl2, and 0.02% BSA followed by […] of membrane protein and 150 ng of epidermal growth factor. The plates are incubated for 10 minutes at room temperature to activate the receptor kinase. […] ATP plus or minus compound are added and incubated 10 minutes at room temperature.

Assay [2] concerns the target T2, human PDGF β receptor intracellular tyrosine kinase domain (Homo sapiens, UniProt P09619).
T2 construct: human PDGF β receptor intracellular tyrosine kinase domain; made in house; host or cells: SF9 insect cells, recombinant baculovirus; cell lysates used
The assay is described as follows: PDGF receptor tyrosine kinase inhibition assay (P^32 incorporation in Glu-Tyr). Format: biochemical. The settings on record: for pIC50: Table 2, PDGF-R, IC50 entries, read-out: IC50 (PDGFR TK); for inhibition at 100 µM: PDGF-R, read-out: % Inhibition at 100 μM (PDGFR TK).
Method: Recombinant baculovirus containing human PDGF β receptor intracellular tyrosine kinase domain was used to infect SF9 cells to overexpress the protein, and cell lysates were used for the assay. The ability of the tyrosine kinase to phosphorylate glutamate tyrosine substrate in the presence of P^32 -ATP and inhibitor was measured by counting the incorporation of P^32 in Glu-Tyr in TCAprecipitable material.

Assay [3] deals with Swiss 3T3 mouse fibroblasts. The assay is described as follows: Growth inhibition assay, Swiss 3T3 fibroblasts. Format: cell-based.
Method: Swiss 3T3 mouse fibroblasts were maintained in dMEM/F12 media containing 10% fetal calf serum. […] The cells were grown at 37° C. under 5% CO2 for 72 hours and then counted by Coulter counter. The data were expressed as the concentration of inhibitor necessary to decrease the growth rate by 50%.
Setting [4] is: Table 2, EGRF-R, IC50 entries, read-out: IC50 (EGFR TK).
[5] abbreviates: Swiss 3T3, 72 hours, Table 2, read-out: IC50 growth inhibition.
Where [6] appears, read: Swiss-3T3, 72 h, read-out: IC50 growth inhibition.

Broadly, the pIC50 is the IC50 on a negative log10 scale, so that one unit is a factor of ten. The inhibition is the percentage by which the read-out fell short of the control.

pIC50: −log10 of the molar value. Where two headings read alike, the source gives them in different places.

T2 sequence (P09619 554-1106 limits assumed): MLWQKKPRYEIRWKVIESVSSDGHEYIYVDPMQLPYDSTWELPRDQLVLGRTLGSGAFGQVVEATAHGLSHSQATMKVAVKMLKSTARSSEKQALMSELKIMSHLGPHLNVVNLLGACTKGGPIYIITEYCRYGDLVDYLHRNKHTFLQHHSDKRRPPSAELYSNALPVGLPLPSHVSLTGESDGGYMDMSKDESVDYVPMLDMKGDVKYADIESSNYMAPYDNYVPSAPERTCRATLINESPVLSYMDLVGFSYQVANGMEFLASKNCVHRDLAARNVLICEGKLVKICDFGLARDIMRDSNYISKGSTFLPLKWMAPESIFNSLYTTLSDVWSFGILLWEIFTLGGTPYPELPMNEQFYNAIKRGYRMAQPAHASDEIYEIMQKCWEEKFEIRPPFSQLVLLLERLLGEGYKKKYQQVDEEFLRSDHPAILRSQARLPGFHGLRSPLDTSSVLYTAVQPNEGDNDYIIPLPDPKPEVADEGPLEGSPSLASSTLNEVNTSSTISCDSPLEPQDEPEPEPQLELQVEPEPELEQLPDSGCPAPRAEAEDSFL
T1 sequence (P00533 25-1210): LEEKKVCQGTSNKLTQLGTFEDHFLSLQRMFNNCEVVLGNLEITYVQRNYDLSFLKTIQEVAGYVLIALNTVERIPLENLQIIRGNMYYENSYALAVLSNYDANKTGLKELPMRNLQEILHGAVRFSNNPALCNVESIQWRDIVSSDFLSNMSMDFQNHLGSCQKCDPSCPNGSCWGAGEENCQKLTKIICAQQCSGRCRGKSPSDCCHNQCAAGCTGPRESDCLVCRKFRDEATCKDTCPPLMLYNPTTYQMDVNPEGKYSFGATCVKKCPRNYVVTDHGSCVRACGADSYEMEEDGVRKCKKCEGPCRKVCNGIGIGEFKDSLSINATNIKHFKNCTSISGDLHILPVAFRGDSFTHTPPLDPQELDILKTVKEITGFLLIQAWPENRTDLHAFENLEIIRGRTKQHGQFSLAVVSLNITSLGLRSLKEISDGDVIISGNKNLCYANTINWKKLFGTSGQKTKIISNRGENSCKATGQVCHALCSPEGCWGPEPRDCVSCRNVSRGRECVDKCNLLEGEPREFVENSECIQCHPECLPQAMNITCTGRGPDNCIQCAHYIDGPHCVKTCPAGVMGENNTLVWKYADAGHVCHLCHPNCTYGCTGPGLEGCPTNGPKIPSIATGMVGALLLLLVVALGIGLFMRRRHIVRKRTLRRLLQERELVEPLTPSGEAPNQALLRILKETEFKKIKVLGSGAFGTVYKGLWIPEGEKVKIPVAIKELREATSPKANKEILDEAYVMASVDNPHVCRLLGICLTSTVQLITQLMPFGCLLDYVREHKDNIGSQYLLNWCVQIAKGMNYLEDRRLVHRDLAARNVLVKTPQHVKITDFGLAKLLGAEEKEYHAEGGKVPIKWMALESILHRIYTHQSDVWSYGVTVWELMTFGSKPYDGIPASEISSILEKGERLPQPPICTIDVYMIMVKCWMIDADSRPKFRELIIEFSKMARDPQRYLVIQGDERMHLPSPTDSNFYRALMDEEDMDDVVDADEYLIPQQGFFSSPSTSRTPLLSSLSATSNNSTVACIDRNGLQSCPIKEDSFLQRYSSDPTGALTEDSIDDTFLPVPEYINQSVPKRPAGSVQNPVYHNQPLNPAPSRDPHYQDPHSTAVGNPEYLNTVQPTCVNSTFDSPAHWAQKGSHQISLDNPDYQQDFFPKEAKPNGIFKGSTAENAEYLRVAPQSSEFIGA
T1 sequence (P01133 971-1023 partner limits assumed): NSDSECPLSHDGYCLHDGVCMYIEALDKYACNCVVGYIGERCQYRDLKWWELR

On to `CNC(=O)c1c(SSc2c(C(=O)NC)c3ccccc3n2C)n(C)c2ccccc12` [Compound 97, bis[N-methyl 1-methylindolyl-3-carboxamide-(2)]disulfide], for which the pIC50 was 5.00 in assay [1] (setting [4]), 4.55 in assay [2] and 5.74 in assay [3] (setting [5]).

As to `COC(=O)Cc1c(SSc2[nH]c3ccccc3c2CC(=O)OC)[nH]c2ccccc12` [Compound 27, bis[methylindolyl-3-acetate-(2)]disulfide], the pIC50 in assay [1] (setting [4]) is 4.75; in assay [3] (setting [5]), 5.64.

In the case of `O=C(O)CCc1c(SSc2[nH]c3ccccc3c2CCC(=O)O)[nH]c2ccccc12` [Compound 36, bis[indolyl-3-propanoic acid-(2)]disulfide], the pIC50 in assay [1] (setting [4]) was 5.32; in assay [3] (setting [5]), 4.23.

`O=C(Cc1c(SSc2[nH]c3ccccc3c2CC(=O)NCc2ccccc2)[nH]c2ccccc12)NCc1ccccc1` [Compound 34, 2,2'-dithiobis[N-benzyl 2-(3-indolyl)acetamide]]: the pIC50 is 4.42 in assay [1] (setting [4]) and 5.57 in assay [3] (setting [5]). Besides, the inhibition at 100 µM in assay [2] amounted to 12.8%.

Take `O=C(O)Cc1c(SSc2[nH]c3ccccc3c2CC(=O)O)[nH]c2ccccc12` [Compound 29, bis[indolyl-3-acetic acid-(2)] disulfide]: the pIC50 in assay [1] (setting [4]) was 5.08; in assay [3] (setting [5]), 4.00 to 4.60.

Regarding `CCOC(=O)CCC1C(=S)Nc2ccccc21` (centres unmarked) [Compound 10, ethyl 3-(2-thioxo-3-indolinyl) propanoate], the inhibition at 100 µM in assay [1] was found to be 10%. Moreover, the pIC50 in assay [3] (setting [5]) is 4.47.

Regarding `COC(=O)Cc1c(SSSc2[nH]c3ccccc3c2CC(=O)OC)[nH]c2ccccc12` [Compound 31, bis[methylindolyl-3-acetate-(2)]trisulfide], the pIC50 is 4.45 in assay [1] (setting [4]) and 6.00 in assay [3] (setting [5]).

As to `COC(=O)CCC1C(=S)Nc2ccccc21` (centres unmarked) [Compound 9, methyl 3-(2-thioxo-3-indolinyl)propanoate], in assay [1], the inhibition at 100 µM worked out at 52%. Also, in assay [3] (setting [5]), the pIC50 was 4.80.

Consider `Cc1c(SSc2c(C)c3ccccc3n2C)n(C)c2ccccc12` [Compound 103], for which the inhibition at 100 µM in assay [1] was found to be 7%. For the same compound, the pIC50 in assay [3] (setting [6]) is 5.42.

With `COC(=O)CCc1c(SSc2c(CCC(=O)OC)c3ccccc3n2C)n(C)c2ccccc12` [Compound 40, 2,2'-dithiobis[methyl 3-(1-methyl-3-indolyl)propanoate]], the inhibition at 100 µM in assay [1] stood at 16.3%. In assay [3] (setting [5]), the pIC50 is 5.28.

For the compound `O=C(CCc1c(SSc2[nH]c3ccccc3c2CCC(=O)NCc2ccccc2)[nH]c2ccccc12)NCc1ccccc1` [Compound 47], the pIC50 in assay [1] (setting [4]) is 6.07; in assay [3] (setting [5]), 5.22.

As to `CCOC(=O)CCc1c(SSc2[nH]c3ccccc3c2CCC(=O)OCC)[nH]c2ccccc12` [Compound 38, bis[ethylindolyl-3-propanoate-(2)] disulfide], in assay [1], the inhibition at 100 µM worked out at 36.5%. The pIC50 in assay [3] (setting [5]) is 5.80.

Take `CNC(=O)c1c([Se][Se]c2c(C(=O)NC)c3ccccc3n2C)n(C)c2ccccc12` [Compound 131, 2,2'-diselenobis [N,1-dimethyl-1H -indole-3-carboxamide]]: the pIC50 in assay [1] is 5.24; in assay [3] (setting [6]) it was 5.26.

`CNC(=O)c1c([Se][Se]c2[nH]c3ccccc3c2C(=O)NC)[nH]c2ccccc12` [Compound 133, 2,2'-diselenobis[N-methyl-1H-indole-3-carboxamide]]: the pIC50 was 4.89 in assay [1] (read-out: IC50 (EGFR TK)) and above 5.30 in assay [3] (setting [6]).

Regarding `O=C(O)CCC1C(=S)Nc2ccccc21` (centres unmarked) [Compound 7, 3-(2-thioxo-3-indolinyl)propanoic acid], the pIC50 in assay [1] (setting [4]) was 5.89; in assay [3] (setting [5]) it was 4.03.

Take `COC(=O)CCc1c(SSc2[nH]c3ccccc3c2CCC(=O)OC)[nH]c2ccccc12` [Compound 39]: the pIC50 in assay [1] (setting [4]) was 4.69; in assay [3] (setting [5]) it was 5.13.

Consider `CCOC(=O)CCc1c(SSc2[nH]c3c(C)cccc3c2CCC(=O)OCC)[nH]c2c(C)cccc12` [Compound 46, bis[ethyl 7-methylindolyl-3-propanoate-(2)] disulfide], for which the inhibition at 100 µM in assay [1] came to 11.4%. Further, the pIC50 in assay [3] (setting [5]) was 5.57.

As for `O=C(O)Cc1c(SSSc2[nH]c3ccccc3c2CC(=O)O)[nH]c2ccccc12` [Compound 30, bis[indolyl-3-acetic acid-(2)]trisulfide], the pIC50 was 5.03 in assay [1] (setting [4]) and 5.10 in assay [3] (setting [5]).

As to `COC(=O)CCCc1c(SSc2[nH]c3ccccc3c2CCCC(=O)OC)[nH]c2ccccc12` [Compound 67, bis[methylindolyl-3-butanoate-(2)]-disulfide], the figures for the inhibition at 100 µM in assay [1] and in assay [2] were 18% and 2%, respectively.

With `COc1cccc2c(C(=O)Nc3ccccc3)c(SSc3c(C(=O)Nc4ccccc4)c4cccc(OC)c4n3C)n(C)c12` [Compound 82, bis[N-phenyl 7-methoxy-1-methylindolyl-3-carboxamide-(2)]disulfide], the figures for the pIC50 in assay [1] (setting [4]) and in assay [3] (setting [5]) were 5.19 and 4.62, respectively.

For the compound `N#CCc1c(SSc2[nH]c3ccccc3c2CC#N)[nH]c2ccccc12` [Compound 35, 2,2'-dithiobis[3-indolylacetonitrile]], the pIC50 in assay [1] (setting [4]) was 4.78. Also, the inhibition at 100 µM in assay [2] came to 33.9%.

Consider `O=C(CCc1c(SSc2[nH]c3ccccc3c2CCC(=O)NCc2ccc(C(=O)O)cc2)[nH]c2ccccc12)NCc1ccc(C(=O)O)cc1` [Compound 56, 2,2'-dithiobis[N-(4-carboxybenzyl)-3-(3-indolyl)propanamide]], for which the pIC50 in assay [1] (setting [4]) was 5.14. For the same compound, the inhibition at 100 µM in assay [2] came to 44.5%.

Turning to `Cn1c(SSc2c(C(=O)Nc3ccccc3)c3c(Cl)cccc3n2C)c(C(=O)Nc2ccccc2)c2c(Cl)cccc21` [Compound 72, bis[N-phenyl 4-chloro-1-methylindolyl-3-carboxamide-(2)] disulfide], the figures for the inhibition at 100 µM in assay [1] and in assay [2] were 47% and 22%, respectively.

For `Cc1ccc2[nH]c(SSc3[nH]c4ccc(C)cc4c3CCC(=O)O)c(CCC(=O)O)c2c1` [Compound 41, bis[5-methylindolyl-3-propanoic acid-(2)]disulfide], the figures for the pIC50 in assay [1] (setting [4]) and in assay [3] (setting [5]) were 5.08 and below 4.60, respectively.

With `COC(=O)c1ccc(CNC(=O)CCc2c(SSc3[nH]c4ccccc4c3CCC(=O)NCc3ccc(C(=O)OC)c(O)c3)[nH]c3ccccc23)cc1O` [Compound 57], the inhibition at 100 µM in assay [1] is 46%; in assay [2], 14.5%.

In the case of `CCN(CC)CCNC(=O)c1c([Se][Se]c2c(C(=O)NCCN(CC)CC)c3ccccc3n2C)n(C)c2ccccc12` [Compound 132, 2,2'-diselenobis [N-[2-(diethylamino)ethyl]-1-methyl-1H-indole-3-carboxamide]], the results for the negative logarithm of the IC50 (pIC50) in assay [1] (read-out: IC50 (EGFR TK)) and in assay [3] (setting [6]) were 5.33 and 4.70, respectively.

Consider `Cn1c(SSc2c(C(=O)Nc3ccccc3)c3cc(F)ccc3n2C)c(C(=O)Nc2ccccc2)c2cc(F)ccc21` [Compound 87, 2,2'-dithiobis [N-phenyl-5-fluoro-1-methylindolyl-3-carboxamide]], for which the inhibition at 100 µM in assay [1] is 34%; in assay [2] it was 44%.

With `CN(C)C(=O)c1c(SSc2c(C(=O)N(C)C)c3ccccc3n2C)n(C)c2ccccc12` [Compound 119, 2,2'-dithiobis[N,N-dimethyl-1-methylindolyl-3-carboxamide]], in assay [1] (setting [4]), the pIC50 was 4.67. In assay [2], the inhibition at 100 µM was found to be 73%.

For `Cn1c(SSc2c(C(=O)Nc3ccc(C(=O)O)cc3)c3ccccc3n2C)c(C(=O)Nc2ccc(C(=O)O)cc2)c2ccccc21` [Compound 105, 2,2'-dithiobis [N-(4'-carboxy)phenyl-1-methylindolyl-3-carboxamide]], the pIC50 in assay [1] (setting [4]) is 4.77. In addition, the inhibition at 100 µM in assay [2] amounted to 33%.

With `Cc1cccc2c(C(=O)Nc3ccccc3)c(SSc3c(C(=O)Nc4ccccc4)c4cccc(C)c4n3C)n(C)c12` [Compound 78, bis [N-phenyl 1,7-dimethyl indolyl-3-carboxamide-(2)]disulfide], the inhibition at 100 µM in assay [1] came to 27%; in assay [2], 7%.

As to `CCN(CC)CCNC(=O)c1c([Se][Se]c2[nH]c3ccccc3c2C(=O)NCCN(CC)CC)[nH]c2ccccc12` [Compound 134, 2,2'-diselenobis [N-[2-(diethylamino)ethyl]-1H-indole-3-carboxamide]], the pIC50 in assay [3] (setting [6]) is 5.10.

On to `Cn1c(SSc2c(C(=O)Nc3cccnc3)c3ccccc3n2C)c(C(=O)Nc2cccnc2)c2ccccc21` [Compound 117, 2,2'-dithiobis [N-(3-pyridyl) 1-methylindolyl-3-carboxamide]], for which the inhibition at 100 µM in assay [1] was determined as 25%. Besides, the pIC50 in assay [2] was 5.38.

As for `COC(=O)CCCc1c(SSc2c(CCCC(=O)OC)c3ccccc3n2C)n(C)c2ccccc12` [Compound 68, bis[methyl 1-methylindolyl-3-butanoate-(2)]disulfide], the inhibition at 100 µM in assay [1] was 14%. In assay [3] (setting [5]), the negative-log IC50 (pIC50) is 5.74.

Regarding `O=C(CCc1c(SSc2[nH]c3ccccc3c2CCC(=O)Nc2ccccc2)[nH]c2ccccc12)Nc1ccccc1` [Compound 59], in assay [1] (setting [4]), the pIC50 was 4.52. The inhibition at 100 µM in assay [2] came out at 11.4%.

As to `CC(=O)Oc1cccc2c1c(C(=O)Nc1ccccc1)c(SSc1c(C(=O)Nc3ccccc3)c3c(OC(C)=O)cccc3n1C)n2C` [Compound 90, 2,2'-dithiobis [N-phenyl 4-acetoxy-1-methylindolyl-3-carboxamide]], the pIC50 in assay [1] (setting [4]) was 4.59; in assay [2] it was 4.44.

(Values after patent US5464861A, “2-thioindoles (selenoindoles) and related disulfides (selenides) which inhibit protein tyrosine kinases and which have antitumor properties” (Warner-Lambert, priority 1993, dated 1995).)
